The values below come from patent US8435976B2, “4-substituted pyridin-3-yl-carboxamide compounds and methods of use” (F. Hoffmann-La Roche, priority 2009, dated 2013).

One experiment concerns MM1.S cells. Kind of experiment: MM1.S cell proliferation, 72 hours (Cell Titer Glo). The class given is cell-based. To be noted: Homo sapiens, 72 hours, read-out: Prolif MM1S ATP (EC50). As to the method: (§1) BaF3 parental line was obtained from the DSMZ repository. BaF3 lines transfected with PIM1 or PIM2 were generated. Mouse IL-3 was purchased from R&D Systems. G418 was purchased from Clontech. Media for BaF3 parental line contained RPMI, 10% FBS, 2 mM L-Glutamine, 2 ng/mL mIL-3. Media for BaF3 PIM1 & 2 lines contained RPMI, 10% FBS, 2 mM L-Glutamine, […]. Media for MM1.S line contained RPMI, 10% FBS, 2 mM L-Glutamine.
(§2) BaF3 parental cells, BaF3 PIM1 cells, BaF3 PIM2 cells, and MM1.S cells were seeded at 2 k/well, 5 k/well, 5 k/well, and 10 k/well respectively, in a 384-well plate, at 45 μL/well. Test compound was added at 5 μL/well. BaF3 cells (parental and transfected) were incubated overnight, while MM1.S cells were incubated for 72 hours at 37° C., 5% CO2. Cell Titer Glo Reagent (Promega) was added at 50 μL/well, the plates were incubated for 30 minutes, and their luminescence read on an HT Analyst. IC50/EC50 values for the test compound were calculated.
(Cellular ATP, detected with luciferase, serves as a proxy for viable cell number.)

The target of another experiment is T1, PIM1 (Homo sapiens, UniProt P11309).
T1 construct: made in house
T1 sequence (P11309 whole entry): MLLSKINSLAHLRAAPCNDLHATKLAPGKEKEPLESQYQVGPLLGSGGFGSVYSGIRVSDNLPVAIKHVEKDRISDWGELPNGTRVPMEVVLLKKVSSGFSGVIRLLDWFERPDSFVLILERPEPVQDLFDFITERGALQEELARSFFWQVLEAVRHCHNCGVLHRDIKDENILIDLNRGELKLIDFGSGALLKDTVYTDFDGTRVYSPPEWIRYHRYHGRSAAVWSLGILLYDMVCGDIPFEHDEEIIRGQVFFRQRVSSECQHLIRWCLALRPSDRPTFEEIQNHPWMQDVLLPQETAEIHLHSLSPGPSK
Kind of experiment: Pim-1 kinase enzymatic assay (Caliper LC3000, FAM-Pimtide substrate). The class given is biochemical. To be noted: 20 pM PIM1, 10 μM ATP, 90 minutes; read-out: PIM1 LC3K (Ki). The protocol: (§3) Reaction Buffer contained 10 mM HEPES, pH 7.2, 10 mM MgCl2, 0.01% Tween 20, 2 mM DTT.
(§4) PIM reactions were carried out in a final volume of 10 μL per well in a 384-well plate. […] The separation of product and substrate was optimized by choosing voltages and pressure using Caliper's Optimizer software (Hopkinton, Mass.). The separation conditions used a downstream voltage of −500V, an upstream voltage of −2150V, and a screening pressure of −1.2 psi. […] Substrate conversion was calculated from the electrophoregram using HTS Well Analyzer software (Caliper Life Sciences, Hopkinton, Mass.). Ki values for the test compound were calculated.

Another experiment concerns the target T2, PIM2 (Homo sapiens, UniProt Q9P1W9).
T2 construct: made in house
The experiment is described as follows: Pim-2 kinase enzymatic assay (Caliper LC3000, FAM-Pimtide substrate). The format is biochemical. To be noted: 50 pM PIM2, 10 μM ATP, 90 minutes; read-out: PIM2 LC3K (Ki). The protocol: as §3, §4

A further experiment has as its target BaF3 PIM1 cells (Homo sapiens, UniProt P11309). Kind of experiment: BaF3 PIM1 cell proliferation (Cell Titer Glo). The format is cell-based. To be noted: incubated overnight; read-out: Prolif BaF3_PIM1 (IC50). The protocol: as §1, §2
The next experiment addresses BaF3 PIM2 cells (Homo sapiens, UniProt Q9P1W9). The experiment is described as follows: BaF3 PIM2 cell proliferation (Cell Titer Glo). The format is cell-based. To be noted: incubated overnight; read-out: Prolif BaF3_PIM2 (IC50). As to the method: as §1, §2
The next experiment deals with T3, PIM3 (Homo sapiens, UniProt Q86V86).
T3 construct: made in house
The experiment is described as follows: Pim-3 kinase enzymatic assay (Caliper LC3000, FAM-Pimtide substrate). The format is biochemical. To be noted: 55 pM PIM3, 10 μM ATP, 90 minutes; read-out: PIM3 LC3K (Ki). As to the method: as §3, §4

Chain of BaF3 PIM1 cells (P11309 whole entry, change not shown): as the sequence (P11309 whole entry) above
T2 sequence (Q9P1W9 whole entry): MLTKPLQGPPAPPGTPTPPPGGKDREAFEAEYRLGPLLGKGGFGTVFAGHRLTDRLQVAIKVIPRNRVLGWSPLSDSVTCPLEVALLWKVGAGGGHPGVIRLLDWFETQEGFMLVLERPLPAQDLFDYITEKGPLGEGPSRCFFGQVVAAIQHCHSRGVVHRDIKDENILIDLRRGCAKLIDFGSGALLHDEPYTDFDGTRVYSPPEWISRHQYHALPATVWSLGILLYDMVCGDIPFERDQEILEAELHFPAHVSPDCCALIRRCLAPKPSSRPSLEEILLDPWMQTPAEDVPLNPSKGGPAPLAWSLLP
Chain of BaF3 PIM2 cells (Q9P1W9 whole entry, change not shown): as the sequence (Q9P1W9 whole entry) above

One may read the EC50 as the concentration at which the effect is half-maximal. The term Ki denotes the dissociation constant of the complex between target and ligand, obtained from inhibition or displacement. On to `Nc1sc(-c2c(F)cccc2F)nc1C(=O)Nc1cnccc1N1CCNCC1` [Example 50, 5-amino-2-(2,6-difluorophenyl)-N-(4-(piperazin-1-yl)pyridin-3-yl)thiazole-4-carboxamide], for which the concentration for a half-maximal effect (EC50) in the experiment on MM1.S cells was 743 nM. The inhibition constant (Ki) was 0.5 nM on PIM1, 6.88 nM at PIM2 and 0.333 nM at PIM3. For the same compound, the GI50 on BaF3 PIM1 cells was found to be 614 nM; at BaF3 PIM2 cells, 1400 nM.

Regarding `Nc1sc(C2CCCNC2)nc1C(=O)Nc1cnccc1N1CCCC(N)C1` (stereo not drawn) [Example 65, 5-amino-N-(4-(3-aminopiperidin-1-yl)pyridin-3-yl)-2-(piperidin-3-yl)thiazole-4-carboxamide], the EC50 with MM1.S cells is more than 20000 nM. In addition, the inhibitory constant (Ki) at PIM1 turned out to be 94.9 nM; at PIM2, 97.1 nM; on PIM3, 47.3 nM. Also, the GI50 on BaF3 PIM1 cells and at BaF3 PIM2 cells was more than 20000 nM in each case.

For `CCCCOc1ccc(F)c(-c2nc(C(=O)Nc3cnccc3N3CCC[C@H](N)C3)c(N)s2)c1F` [Example 28, (S)-5-amino-N-(4-(3-aminopiperidin-1-yl)pyridin-3-yl)-2-(3-butyloxy-2,6-difluorophenyl)thiazole-4-carboxamide], in the experiment on MM1.S cells, the EC50 was determined as 1900 nM. The inhibitory constant (Ki) on PIM1 was 0.102 nM; at PIM2 it was 0.434 nM; at PIM3, 0.118 nM. The GI50 at BaF3 PIM1 cells came out at 135 nM; on BaF3 PIM2 cells, 2800 nM.

On to `CC(C)NC(=O)c1ccc(F)c(-c2nc(C(=O)Nc3cnccc3N3CCC[C@@H](N)C3)c(N)s2)c1` [Example 53, (R)-5-amino-N-(4-(3-aminopiperidin-1-yl)pyridin-3-yl)-2-(2-fluoro-5-(isopropylcarbamoyl)phenyl)thiazole-4-carboxamide], for which, in the experiment on MM1.S cells, the concentration giving a half-maximal response (EC50) is 660 nM. For the same compound, the Ki on PIM1 came to 0.208 nM; on PIM2 it was 0.839 nM; at PIM3, 0.146 nM. Further, the GI50 at BaF3 PIM1 cells was determined as 273 nM; on BaF3 PIM2 cells it was 7600 nM.

In the case of `Nc1sc(-c2ccc(F)cc2F)nc1C(=O)Nc1cnccc1N1CCC[C@H](N)C1` [Example 42, (S)-5-amino-N-(4-(3-aminopiperidin-1-yl)pyridin-3-yl)-2-(2,4-difluorophenyl)thiazole-4-carboxamide], the concentration for a half-maximal effect (EC50) with MM1.S cells stood at 121 nM. The inhibitory constant (Ki) on PIM1 worked out at 0.036 nM; at PIM2 it was 0.0939 nM; at PIM3, 0.022 nM. In addition, the GI50 on BaF3 PIM1 cells came out at 30.4 nM; at BaF3 PIM2 cells, 2100 nM.

With `CC(C)(C)c1nc(C(=O)Nc2cnccc2N2CCC[C@H](N)C2)c(N)s1` [Example 16, (S)-5-amino-N-(4-(3-aminopiperidin-1-yl)pyridin-3-yl)-2-tert-butylthiazole-4-carboxamide], the EC50 in the experiment on MM1.S cells was 10000 to 20000 nM. The Ki on PIM1 was found to be 1.56 nM; on PIM2, 3.83 nM; at PIM3, 2.26 nM. Moreover, the GI50 at BaF3 PIM1 cells is 926 nM; at BaF3 PIM2 cells, more than 20000 nM.

As for `CN(C)Cc1nc(C(=O)Nc2cnccc2N2CCC[C@H](N)C2)c(N)s1` [Example 21, (S)-5-amino-N-(4-(3-aminopiperidin-1-yl)pyridin-3-yl)-2-((dimethylamino)methyl)thiazole-4-carboxamide], the half-maximal effective concentration (EC50) in the experiment on MM1.S cells is more than 20000 nM. Also, the Ki was 420 nM at PIM1, 242 nM on PIM2 and 138 nM at PIM3. The GI50 on BaF3 PIM1 cells and on BaF3 PIM2 cells was more than 20000 nM throughout.

On to `Nc1sc(-c2ncccc2F)nc1C(=O)Nc1cnccc1N1CCC[C@H](N)C1` [Example 66, (S)-5-amino-N-(4-(3-aminopiperidin-1-yl)pyridin-3-yl)-2-(3-fluoropyridin-2-yl)thiazole-4-carboxamide], for which the EC50 in the experiment on MM1.S cells was found to be 2800 nM. Further, the Ki on PIM1 stood at 0.05 nM; on PIM2, 0.0894 nM; at PIM3, 0.022 nM. In addition, the GI50 at BaF3 PIM1 cells came to 40.6 nM; on BaF3 PIM2 cells, 2100 nM.

As for `C=C(C)c1nc(C(=O)Nc2cnccc2N2CCC[C@H](N)C2)c(N)s1` [Example 59, (S)-5-amino-N-(4-(3-aminopiperidin-1-yl)pyridin-3-yl)-2-(prop-1-en-2-yl)thiazole-4-carboxamide], the EC50 in the experiment with MM1.S cells is more than 20000 nM. The Ki was 18.2 nM at PIM1, 355 nM on PIM2 and 48 nM at PIM3. The GI50 at BaF3 PIM1 cells and on BaF3 PIM2 cells was more than 20000 nM each time.

`Nc1sc(-c2ccccc2F)nc1C(=O)Nc1cnccc1N1C[C@@H](N)C[C@@H](F)C1` [Example 62, 5-amino-N-(4-((3S,5R)-3-amino-5-fluoropiperidin-1-yl)pyridin-3-yl)-2-(2-fluorophenyl)thiazole-4-carboxamide]: in the experiment on MM1.S cells, the EC50 is 364 nM. The inhibition constant (Ki) at PIM1 is 1.34 nM; at PIM2, 8.87 nM; at PIM3 it was 0.326 nM. Further, the values for the GI50 on BaF3 PIM1 cells and on BaF3 PIM2 cells were 6000 nM and 10400 nM, respectively.

For `Nc1sc(-c2c(F)cccc2F)nc1C(=O)Nc1cnccc1N1CCCCC1` [Example 24, 5-amino-2-(2,6-difluorophenyl)-N-(4-(piperidin-1-yl)pyridin-3-yl)thiazole-4-carboxamide], the half-maximal effective concentration (EC50) with MM1.S cells came to 20000 nM. Further, the Ki on PIM1 is 0.43 nM; on PIM2, 16.3 nM; on PIM3 it was 1.76 nM. Moreover, the GI50 is more than 14000 nM on BaF3 PIM1 cells and more than 20000 nM at BaF3 PIM2 cells.

Consider `Nc1sc(-c2cc(F)ccc2F)nc1C(=O)Nc1cnccc1N1CCC[C@H](N)C1` [Example 41, (S)-5-amino-N-(4-(3-aminopiperidin-1-yl)pyridin-3-yl)-2-(2,5-difluorophenyl)thiazole-4-carboxamide], for which the EC50 with MM1.S cells was determined as 2000 nM. Besides, the Ki on PIM1 was 0.049 nM; at PIM2, 0.208 nM; on PIM3, 0.022 nM. Also, the GI50 is 69 nM at BaF3 PIM1 cells and 3900 nM at BaF3 PIM2 cells.

Consider `N[C@H]1CCCN(c2ccncc2NC(=O)c2csc(-c3ccccc3F)n2)C1` [Example 45, (S)-N-(4-(3-aminopiperidin-1-yl)pyridin-3-yl)-2-(2-fluorophenyl)thiazole-4-carboxamide], for which the EC50 in the experiment with MM1.S cells came to 5500 nM. The inhibition constant Ki at PIM1 was determined as 0.561 nM; on PIM2 it was 2.78 nM; at PIM3, 0.338 nM. For the same compound, the GI50 on BaF3 PIM1 cells was found to be 613 nM; at BaF3 PIM2 cells it was 12500 nM.

As for `Nc1sc(-c2ccc3nccn3c2)nc1C(=O)Nc1cnccc1N1CCC[C@H](N)C1` [Example 61, (S)-5-amino-N-(4-(3-aminopiperidin-1-yl)pyridin-3-yl)-2-(imidazo[1,2-a]pyridin-6-yl)thiazole-4-carboxamide], in the experiment with MM1.S cells, the 50% effective concentration (EC50) was 10400 nM. In addition, the Ki at PIM1 stood at 0.642 nM; at PIM2 it was 18.2 nM; at PIM3, 1.01 nM. Further, the GI50 was 7100 nM on BaF3 PIM1 cells and more than 20000 nM at BaF3 PIM2 cells.

Consider `Nc1sc(-c2cccc(F)c2F)nc1C(=O)Nc1cnccc1N1CCC[C@H](N)C1` [Example 43, (S)-5-amino-N-(4-(3-aminopiperidin-1-yl)pyridin-3-yl)-2-(2,3-difluorophenyl)thiazole-4-carboxamide], for which the half-maximal effective concentration (EC50) in the experiment with MM1.S cells stood at 237 nM. Besides, the inhibition constant Ki is 0.061 nM at PIM1, 0.0185 nM on PIM2 and 0.022 nM on PIM3. The GI50 on BaF3 PIM1 cells was found to be 45.5 nM; on BaF3 PIM2 cells it was 3900 nM.
